Results as given in patent US20070123537A1, “Quinazoline derivatives for the treatment of herpesviral infections” (GPC Biotech AG, priority 2003, published 2007).
“Also recorded” adds a separate entry of the source. Like-named read-outs stand apart in the source and are kept apart here. Each block holds one molecule with its values, some of them ahead of it.

Experiments:
viral kinase UL-97 = target: T1, viral kinase UL-97 (Human cytomegalovirus, UniProt P16788); assay: UL97 Kinase-Assay on Immobilon Plate; assay type: biochemical
T1 construct: The UL-97 gene was cloned into a baculovirus vector in order to produce GST (glutathione S-transferase) fusion protein; GST; made in house; host or cells: Sf9 insect cells (baculovirus)
Experimental: UL97 Kinase-Assay on Immobilon Plate
The effect of quinazoline derivatives on the activity of the viral kinase UL-97 was tested. This kinase is derived from human cytomegalovirus (HCMV) (Marschall, M., et al., J. Gen Virol. 2001, 82,1439-1450.). The UL-97 gene was cloned into a baculovirus vector in order to produce GST (glutathione S-transferase) fusion protein. Insect cells (Sf9) were infected and GST-UL-97 purified via glutathione affinity columns according to standard procedures.
The UL-97 kinase reaction was performed as described (Marschall M. et aL, J. Gen. Virol. 2001, 82, 1439-1450). Briefly, 10 μl Assay buffer (3 μM ATP, 60 μg/ml myelin basic protein (MBP) as substrate), 1,0 μCi gamma[^33P]ATP and 10 μp, Basic buffer (20mM Tris-HCl 7.5, 500 μM MnCl2, 1 mM DTT (dithiothreitol)) were given to the test tube before adding various concentrations of the quinazoline derivatives. The reaction was started by adding 0.2 μl UL97 kinase, purified from infected Sf9-insect cells as described above. The total volume was adjusted with Basic buffer to a final volume of 30 μl. The reaction mix was incubated for 1 hr at 30° C. For negative control, 10 μl 0.1 M EDTA (ethylene diamine tetraacetate) was added to reaction mix before addition of UL-97 protein kinase. The reaction was stopped by addition of 10 μl 0.1 M EDTA.
Measuring Incorporation of Radioactivity
An Immobilon plate (Millipore) was rinsed with 50 μl methanol/well. Following addition of 100 μl 0.1 M EDTA, 20 μl of each kinase reaction mix was added to one well of the Immobilon plate. Each well was washed 4× with 250 μl 0.75% phosphoric acid and 1× with 50 μl methanol. After addition of 50 μl scintillation cocktail (Roth, Germany) per well incorporation of radioactivity was measured using a Betareader (Wallac) and enzymatic activity calculated.

clinical HCMV isolate R3 = assay: Plaque reduction assay, clinical isolate R3; assay type: cell-based, Human Cytomegalovirus (HCMV); conditions: partially GCV resistant, CDV sensitive isolate; read-out: IC 50, clinical isolate R3
Experimental: (§1) HCMV reference strain AD 169 was used at an MOI (multiplicity of infection) of 0.004 for the infection of HFFs in 12 well plates as described in FIG. 2. After virus adsorption, the infected cell layers were overlayed with fresh medium containing the compound concentration as indicated in FIG. 2 and 0.3% agarose. After eight days postinfection, a staining of virus plaques was performed by the use of 1% crystal violet. Quantification was achieved by microscopic counting in quadruplicate (infection in duplicate, counting in duplicate).
(§2) Furthermore, clinical isolates of HCMV like R5, R3 and R2 were used for the infection of HFFs in a plaque reduction assay under the conditions described above. Parallel experiments on phenotype characterization , gene sequencing and UL 97-in-cell-activity assay (GCV phosphorylation) with cloned UL 97 were performed (Marschall, M., et al., J. Gen Virol. 2001, 82, 1439-1450).
(§3) Three clinical HCMV strains were investigated on replication in the presence of the selected quinazoline derivatives 3,4-Dichloro-phenyl)-quinazolin-4-yl-amine (compound 37), (3,4-Dichloro-phenyl)-(6-methyl-quinazolin-4-yl)-amine (compound 49) and (4-Bromo-phenyl)-quinazolin-4-yl-amine (compound 98).

clinical HCMV strain R2 = assay: Plaque reduction assay, clinical isolate R2; assay type: cell-based, Human Cytomegalovirus (HCMV); conditions: Human betaherpesvirus 5; GCV- and CDV-resistant strain; read-out: IC 50, clinical strain R2
Experimental: as §1, §2, §3

HCMV mutant AD169deIUL97 = assay: Plaque reduction assay with UL97-deleted HCMV mutant; assay type: cell-based, Human Cytomegalovirus (HCMV); conditions: 50 nM NGIC-I, 10 μM compound 37 or 2 μM CDV
Experimental: FIG. 3: Replication of UL97-deleted HCMV in the presence of pUL97 inhibitors. Plaque assays were performed with HCMV mutant AD169deIUL97, carrying a deletion in the UL97 gene, in the presence of 0.1% DMSO (no inhib.), 50 nM NGIC-I, 10 μM compound 37 or 2 μM CDV as indicated.
To confirm the conclusion that pUL97 is the target for the antiviral activity of quinazolines, we performed an experiment with an UL97-deleted mutant of HCMV (AD169deIUL97) (Prichard, M. N., Gao, N., Jairath, S., Mulamba, G., Krosky, P., Coen, D. M., Parker, B. O., and Pari, G. S., J. Virol. […], 73, 5663).

clinical HCMV isolate R5 = assay: Plaque reduction assay, clinical isolate R5; assay type: cell-based, Human Cytomegalovirus (HCMV); conditions: GCV sensitive and CDV sensitive isolate; read-out: IC 50, clinical isolate R5
Experimental: as §1, §2, §3

HCMV AD-169 = assay: HCMV infection of HFFs, reporter gene based antiviral assay; assay type: cell-based, Human Cytomegalovirus (HCMV); conditions: for HCMV AD 169 Replication [%] of control at 3 μM: 3 μM compound, HFFs, reporter gene activity after seven days; for IC50: replication of HCMV strain AD 169 in HFF cells, read-out: HCMV AD 169 IC 50
Experimental: To examine the effect of the quinazoline derivatives on HCMV replication, HCMV infections were performed in a cellular system.
Human foreskin fibroblasts (HFFs) were grown to subconfluency in 12 well plates and infected with 0.25 tissue culture infectious doses of HCMV AD-169 carrying a reporter gene (HCMV based antiviral assay). Quinazoline derivatives (stocks in DMSO (Dimethylsulfoxide)) were diluted in culture medium to the concentrations indicated and added to the cells immediately after virus adsorption. The success of infection (reporter gene expressing cells) and the lack of cytotoxicity of the compound (confluent cell layer) was monitored by microscopy. After seven days, cell layers were harvested, lysed and subjected to the automated fluorometry measurement of reporter gene activity. Each panel refers to a determination in quadruplicate (infection in duplicate, lysate preparation and measurement in duplicate).

[1] = tested on: HCMV reference strain AD 169; assay: Plaque reduction assay, HCMV AD 169 in HFFs; assay type: cell-based, Human Cytomegalovirus (HCMV); conditions: Human betaherpesvirus 5, 192 h, read-out: IC50 in the plaque reduction assay
Experimental: as §1

HEK 293 cells = assay: Toxicity assay in HEK 293 cells; assay type: cell-based
Experimental: Toxicity Assay: Toxicity of the quinazoline derivatives was measured by incubating HEK 293 cells with 10 μM of each derivative. The corresponding amount of DMSO served as control.

UL 97 = target: T2, UL 97 (Human cytomegalovirus, UniProt P16788); assay: UL 97 in-cell activity: protection of HEK 293 cells ectopically expressing UL 97 against toxic GCV; assay type: cell-based, human cytomegalovirus (HCMV); conditions: HEK 293 cells expressing UL 97
T2 construct: expressed in transfected cells; host or cells: HEK 293
Experimental: as §2
Furthermore, (IC50)-values of HCMV replication was measured for some compounds in a cellular system. Some quinazoline derivatives protect HEK 293 cells ectopially expressing UL 97 against toxic concentrations of GCV (10 and 20 μM respectively).

[2] = 3 μM ATP, MBP substrate, read-out: UL 97 IC 50
[3] = HCMV AD 169, HFFs, eight days postinfection
[4] = Human betaherpesvirus 5, AD169, HFF

T2 sequence (P16788 whole entry): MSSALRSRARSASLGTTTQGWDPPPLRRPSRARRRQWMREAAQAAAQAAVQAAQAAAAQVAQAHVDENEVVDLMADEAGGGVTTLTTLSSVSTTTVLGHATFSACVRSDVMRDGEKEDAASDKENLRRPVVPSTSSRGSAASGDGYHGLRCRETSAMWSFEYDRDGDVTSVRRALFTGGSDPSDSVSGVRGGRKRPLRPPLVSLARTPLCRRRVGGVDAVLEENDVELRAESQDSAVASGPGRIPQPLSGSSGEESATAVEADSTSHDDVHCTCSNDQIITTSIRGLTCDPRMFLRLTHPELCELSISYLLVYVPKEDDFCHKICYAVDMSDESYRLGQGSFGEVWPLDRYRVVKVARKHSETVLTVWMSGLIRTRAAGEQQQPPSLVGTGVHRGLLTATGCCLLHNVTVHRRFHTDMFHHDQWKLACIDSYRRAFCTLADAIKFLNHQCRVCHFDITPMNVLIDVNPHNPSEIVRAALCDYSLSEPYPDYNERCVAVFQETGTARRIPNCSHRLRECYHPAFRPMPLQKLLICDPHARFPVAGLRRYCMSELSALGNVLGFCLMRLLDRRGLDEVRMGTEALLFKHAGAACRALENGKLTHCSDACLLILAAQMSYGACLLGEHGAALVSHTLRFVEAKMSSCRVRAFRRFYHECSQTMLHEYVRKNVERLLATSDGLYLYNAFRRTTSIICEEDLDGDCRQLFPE
T1 sequence (P16788 whole entry, the tested form may be a part): as the sequence (P16788 whole entry) above

inhibition of UL 97-kinase activity (in words) (viral kinase UL-97): potent inhibitors
IC50 (viral kinase UL-97; [2]): 700 nM
SMILES: Clc1cccc(Nc2ncnc3ccccc23)c1 [Compound 87, (3-Chloro-phenyl)-quinazolin-4-yl-amine]

inhibition of UL 97-kinase activity (in words) (viral kinase UL-97): potent inhibitors
SMILES: CCc1cccc(Nc2ncnc3ccc(C)cc23)c1 [Compound 89, (3-Ethyl-phenyl)-(6-methyl-quinazolin-4-yl)-amine]

inhibition of UL 97-kinase activity (in words) (viral kinase UL-97): potent inhibitors
SMILES: Fc1ccc2c(Nc3cccc(Cl)c3)ncnc2c1 [Compound 70, (3-Chloro-phenyl)-(7-fluoro-quinazolin-4-yl)-amine]

SMILES: c1ccc(Nc2ncnc3ccccc23)cc1 [Compound 84, Phenyl-quinazolin-4-yl-amine]
IC50 (viral kinase UL-97): 300 nM

SMILES: Nc1ccn(C[C@@H](CO)OCP(=O)(O)O)c(=O)n1 [CDV, Cidofovir]
IC50 (clinical HCMV isolate R3): 350 nM
IC50 (clinical HCMV strain R2): 4200 nM
effect on replication of AD169deIUL97 (plaque assay) (HCMV mutant AD169deIUL97): complete inhibition; also recorded: efficiently blocked
IC50 (clinical HCMV isolate R5): 700 nM

SMILES: Cc1ccc2ncnc(Nc3ccc(Br)cc3)c2c1 [Compound 43, (4-Bromo-phenyl)-(6-methyl-quinazolin-4-yl)-amine]
inhibition of UL 97-kinase activity (in words) (viral kinase UL-97): potent inhibitors
IC50 (viral kinase UL-97; [2]): > 100 nM
HCMV AD 169 Replication [%] of control at 3 μM (HCMV AD-169): 20%

inhibition of UL 97-kinase activity (in words) (viral kinase UL-97): potent inhibitors
IC50 (viral kinase UL-97; [2]): 200 nM
SMILES: Ic1ccc(Nc2ncnc3ccccc23)cc1 [Compound 72, (4-lodo-phenyl)-quinazolin-4-yl-amine]

SMILES: Clc1ccc(Nc2ncnc3ccccc23)cc1Cl [Compound 37, (3,4-Dichloro-phenyl)-quinazolin-4-yl-amine]
IC50 [1, 3]: 2500 to 5000 nM
Viability [%] at 10 μM (HEK 293 cells): 77%
inhibition of UL 97-kinase activity (in words) (viral kinase UL-97): potent inhibitors
IC50 (viral kinase UL-97; [2]): 40 nM
UL 97 GCV [%] growth at conc. [μM] (UL 97; at 10 μM): 80%
UL 97 GCV [%] growth at conc. [μM] (UL 97; at 20 μM): 50%
effect on replication of AD169deIUL97 (plaque assay) (HCMV mutant AD169deIUL97): only little or no effect
effect on replication of AD169deIUL97 (plaque assay) (HCMV mutant AD169deIUL97; listed as compound 37): not
HCMV AD 169 Replication [%] of control at 3 μM (HCMV AD-169): 45%
IC50 (HCMV AD-169; [4]): 2000 to 3000 nM
IC50 (HCMV AD-169): 3000 nM

SMILES: Nc1nc(O)c2ncn(COC(CO)CO)c2n1 [ganciclovir]
IC50 [1, 3]: 4000 to 6000 nM
IC50 (clinical HCMV isolate R3): 20000 nM
IC50 (clinical HCMV strain R2): 34000 nM
IC50 (HCMV AD-169; [4]): 3000 to 4000 nM
IC50 (clinical HCMV isolate R5): 4100 nM

inhibition of UL 97-kinase activity (in words) (viral kinase UL-97): potent inhibitors
IC50 (viral kinase UL-97; [2]): 200 nM
SMILES: Fc1ccc(Nc2ncnc3ccccc23)cc1 [Compound 88, (4-Fluoro-phenyl)-quinazolin-4-yl-amine]

SMILES: Cc1ccc2ncnc(Nc3ccc(Cl)c(Cl)c3)c2c1 [Compound 49, (3,4-Dichloro-phenyl)-(6-methyl-quinazolin-4-yl)-amine]
IC50 [1]: 2500 to 5000 nM
Viability [%] at 10 μM (HEK 293 cells): 78%
inhibition of UL 97-kinase activity (in words) (viral kinase UL-97): potent inhibitors
IC50 (viral kinase UL-97; [2]): 20 nM
UL 97 GCV [%] growth at conc. [μM] (UL 97; at 10 μM): 80% at 10 μM
HCMV AD 169 Replication [%] of control at 3 μM (HCMV AD-169): 20%
IC50 (HCMV AD-169; [4]): 2000 to 3000 nM
IC50 (HCMV AD-169): 2500 nM

SMILES: COc1cc2ncnc(Nc3ccc(Br)cc3)c2cc1OC [Compound 31, (4-Bromo-phenyl)-(6,7-dimethoxy-quinazolin-4-yl)-amine]
inhibition of UL 97-kinase activity (in words) (viral kinase UL-97): potent inhibitors
IC50 (viral kinase UL-97; [2]): 1200 nM
HCMV AD 169 Replication [%] of control at 3 μM (HCMV AD-169): 60%

SMILES: Brc1ccc(Nc2ncnc3ccccc23)cc1 [Compound 98, (4-Bromo-phenyl)-quinazolin-4-yl-amine]
IC50 [1, 3]: 2500 to 5000 nM
Viability [%] at 10 μM (HEK 293 cells): 75%
inhibition of UL 97-kinase activity (in words) (viral kinase UL-97): potent inhibitors
IC50 (viral kinase UL-97; [2]): 170 nM
UL 97 GCV [%] growth at conc. [μM] (UL 97; at 10 μM): 80%
UL 97 GCV [%] growth at conc. [μM] (UL 97; at 20 μM): 60%
HCMV AD 169 Replication [%] of control at 3 μM (HCMV AD-169): 30%
IC50 (HCMV AD-169; [4]): 2000 to 3000 nM
IC50 (HCMV AD-169): 2000 nM
